Test results taken from patent US20240043528A1, “NANOBODY-OGA FUSIONS AND USES THEREOF” (President and Fellows of Harvard College, priority 2020, published 2024).

What was measured:
Assay type in all cases: cell-based, human
[1] = system: AP-1 transcriptional activity; assay: AP-1 responsive luciferase reporter assay in c-Fos-Ubc co-transfected HEK 293T cells; conditions: c-Fos-Ubc-Flag-EPEA co-transfected HEK 293T cells, 48 h; OSMI-4b 25 μM
Experimental: For luciferase assay in the OGT inhibition experiment, HEK 293T cells co-transfected with c-Fos-Ubc-Flag-EPEA plasmid and AP-1 responsive luciferase reporter were treated with either DMSO or 25 μM OSMI-4b for 48 h before luciferase activity detection. […] Luciferase reporter assays were performed using Luciferase Assay System (Promega, E1500) according to manufacturer's protocols. At least three independent biological replicates were run using this assay.

[2] = system: global O-GlcNAcylation; assay: Global O-GlcNAcylation level in whole cell lysate, anti-O-GlcNAc (RL2) immunoblot; conditions: HEK 293T whole cell lysate, OSMI-4b 25 μM for 30 h
Experimental: After 36-48 h of transfection, cells were harvested and washed with PBS once. Cells were lysed with M-PER lysis buffer containing 1× protease inhibitor cocktail and 10 μM Thiamet-G unless otherwise noted. Protein concentrations were determined by the BCA assay kit (G-Biosciences, 786) on a multi-mode microplate reader FilterMax F3 (Molecular Devices LLC, Sunnyvale, CA).
For immunoblotting analysis, proteins were transferred to a nitrocellulose membrane using iBlot (Thermo Scientific). Membranes were blocked with Tris buffered saline containing 0.1% Tween-20 and 5% BSA and incubated with the primary antibodies (1:1000 dilution) and the secondary antibodies (1:10,000 dilution) sequentially. Immunoblot images were captured by Azure Imager C600. Analysis of immunoblots was conducted with Fiji ImageJ. All IR fluorescence western blot images are converted into grayscale images by Fiji ImageJ. The unsaturated exposure of immunoblot images was used for quantification with the appropriate loading controls as standards. Statistical analysis of the data was performed with Prism 8, using data from at least three independent experiments.

[3] = system: c-Fos-Ubc-Flag-EPEA; assay: Deglycosylation of c-Fos-Ubc-Flag-EPEA (anti-EPEA enrichment, anti-O-GlcNAc immunoblot); conditions: HEK 293T cells
Experimental: For immunoprecipitation of proteins with the C-terminal EPEA tag, cell lysates with equal amounts of protein were diluted with PBS and incubated with C-tag affinity matrix (Thermo Scientific) for 1 h at room temperature, with end-to-end rotation, following the manufacturer's instructions. After washing three times with PBS buffer, the enriched proteins were eluted with SDS sample buffer and subjected to SDS-PAGE.
For immunoblotting analysis, proteins were transferred to a nitrocellulose membrane using iBlot (Thermo Scientific). […] All IR fluorescence western blot images are converted into grayscale images by Fiji ImageJ. The unsaturated exposure of immunoblot images was used for quantification with the appropriate loading controls as standards. […]
The ability of nUbc-split OGA to selectively remove an O-GlcNAc modification from Ubc-tagged c-Fos was examined. c-Fos is a core component of the AP-1 transcription factor complex, which will dimerize with c-Jun and drive downstream transcription (Hess, J., Angel, P. & Schorpp-Kistner, M. AP-1 subunits: quarrel and harmony among siblings. J. Cell Sci. 2004, 117, 5965-73). […] The O-GlcNAc modification level was evaluated by immunoblotting with an anti-O-GlcNAc antibody (FIG. 4C). Ratios were quantified from the protein level and O-GlcNAc level.

[4] = system: endogenous c-Jun; assay: O-GlcNAcylation status of endogenous c-Jun (chemoenzymatic labeling, Biotin-IP); conditions: HEK 293T cells expressing c-Fos-Ubc
Experimental: Purification of GalT1 (Y289L) enzyme and labeling of O-GlcNAcylated proteins with GalNAz were performed according to the procedure of Hsieh-Wilson and co-workers (Thompson, J. W., Griffin, M. E. & Hsieh-Wilson, L. C. Methods for the Detection, Study, and Dynamic Profiling of O-GlcNAc Glycosylation. Methods Enzymol. 2018, 598, 101-135). Briefly, cell samples in 6-well plates or 15-cm dishes were harvested and washed by PBS once. The lysis buffer (PBS with 2% SDS) was added into cell pellets and heated for 5 min at 95° C., followed by the sonication to sheer DNA. Protein concentrations were determined by BCA assay. Cell lysates were reduced and alkylated with 25 mM DTT at 95° C. for 5 min and 50 mM iodoacetamide at room temperature for 1 h respectively. Proteins were precipitated by the methanol/chloroform solution (aqueous phase:CH3OH:CHCl3=4:4:1) and resuspended in 1% SDS, 20 mM HEPES (pH 7.9) buffer with a concentration of 3.75 mg/mL. For 150 μg proteins, H2O (49 μL), 2.5×GalT labeling buffer (80 μL, final concentrations: 50 mM NaCl, 20 mM HEPES, 2% NP-40, pH 7.9), 100 mM MnCl2 (11 μL), 500 μM UDP-GalNAz (10 μL), 2 mg/mL GalT1 (Y289L) (10 μL) were added into cell lysates orderly. The reaction was gently rotated at 4° C. for at least 20 h and the proteins were precipitated as described above. The proteins were resuspended with 1% SDS, PBS for the further click chemistry. […]

For OSMI-4b, which “AP-1 transcriptional activity (luciferase)” value [1] is on record?
Its value is “significantly upregulated”.

What about the “global O-GlcNAcylation level” value [2] of the same substance?
Its value is “dramatic reduction of global O-GlcNAcylation level”.

And the “global O-GlcNAcylation level” value ([2]; listed as OSMI-4b9)?
Its value is “dramatic reduction”.

And the “O-GlcNAc modification level on c-Fos-Ubc” value [3]?
The value was “deglycosylated”.

What about the “O-GlcNAc modification on endogenous c-Jun” value [4] of the same substance?
Its value is “reduced O-GlcNAc modification”.
